Data: ChEMBL document CHEMBL3286339, “Synthesis and in vivo SAR study of indolin-2-one-based multi-targeted inhibitors as potential anticancer agents” (Eur J Med Chem, 2014)
Calls of active or inactive are those of the source. The calls are words filed in the database; no cut-off is given here.

Tests used:
Mus musculus [1] = experiment: Toxicity in BALB/c nude mouse xenografted with human HT-29 cells assessed as change in body weight at 80 mg/kg/day administered qd relative to control; format: organism-based; conditions: in vivo
NCI-H526 = experiment: Antiproliferative activity against human NCI-H526 cells after 72 hrs by MTT assay; format: functional, cell-based; conditions: NCI-H526, 72 h
[2] = Antiproliferative activity against human MV411 cells after 48 hrs by MTT assay; format: functional, cell-based; conditions: MV4-11, 48 h
[3] = Antiproliferative activity against human LO2 cells after 72 hrs by MTT assay; format: cell-based; conditions: L02, 72 h
Mus musculus [4] = experiment: Toxicity in BALB/c nude mouse xenografted with human NCI-H460 cells assessed as change in body weight at 40 mg/kg/day administered qd relative to control; format: organism-based; conditions: in vivo
[5] = Antiproliferative activity against human HK2 cells after 72 hrs by MTT assay; format: cell-based; conditions: HK-2, 72 h
Mus musculus [6] = experiment: Toxicity in BALB/c nude mouse xenografted with human HT-29 cells assessed as severe weight loss at 80 mg/kg/day administered qd measured after 12 to 15 days; format: organism-based; conditions: in vivo
Mus musculus [7] = experiment: Toxicity in BALB/c nude mouse xenografted with human HT-29 cells assessed as mortality at 80 mg/kg/day administered qd measured on day 21; format: organism-based; conditions: in vivo
NCI-H460 [8] = experiment: Antitumor activity against human NCI-H460 cells xenografted in BALB/c nude mouse assessed as tumor growth inhibition at 40 mg/kg/day administered qd measured up to day 21 relative to control; format: functional
TT = experiment: Antiproliferative activity against human TT cells pretreated for 72 hrs followed by compound-washout measured after 72 hrs by MTT assay; format: functional, cell-based
NCI-H460 [9] = experiment: Antiproliferative activity against human NCI-H460 cells after 72 hrs by MTT assay; format: functional, cell-based; conditions: NCI-H460, 72 h
[10] = Antiproliferative activity against human Bel7402 cells after 72 hrs by MTT assay; format: functional, cell-based; conditions: Bel-7402, 72 h
HT-29 = experiment: Antitumor activity against human HT-29 cells xenografted in BALB/c nude mouse assessed as tumor growth inhibition at 80 mg/kg/day administered qd measured up to day 21 relative to control; format: functional
[11] = Antiproliferative activity against human NCI-H3122 cells after 72 hrs by MTT assay; format: functional, cell-based; conditions: NCI-H3122, 72 h
Aorta [12] = experiment: Antiangiogenic activity in Sprague-Dawley rat aortic ring at 0.2 ug/ml after 6 days by inverted microscopic analysis; format: functional, tissue-based
Mus musculus [13] = experiment: Toxicity in BALB/c nude mouse xenografted with human NCI-H460 cells assessed as weakness at 40 mg/kg/day administered qd; format: organism-based; conditions: in vivo
Aorta [14] = experiment: Inhibition of micrangium generation in Sprague-Dawley rat aortic ring at 0.2 ug/ml after 6 days by inverted microscopic analysis; format: functional, tissue-based
Mus musculus [15] = experiment: Toxicity in BALB/c nude mouse xenografted with human NCI-H460 cells assessed as lethargic behavior at 40 mg/kg/day administered qd; format: organism-based; conditions: in vivo
Mus musculus [16] = experiment: Toxicity in BALB/c nude mouse xenografted with human NCI-H460 cells assessed as mortality at 40 mg/kg/day administered qd measured on day 15; format: organism-based; conditions: in vivo
Mus musculus [17] = experiment: Toxicity in BALB/c nude mouse xenografted with human NCI-H460 cells assessed as severe weight loss at 40 mg/kg/day administered qd measured after 9 days; format: organism-based; conditions: in vivo, 216 h
Mus musculus [18] = experiment: Toxicity in BALB/c nude mouse xenografted with human NCI-H460 cells assessed as bloody stool at 40 mg/kg/day administered qd measured after 9 days; format: organism-based; conditions: in vivo, 216 h
Mus musculus [19] = experiment: Toxicity in BALB/c nude mouse xenografted with human HT-29 cells assessed as bloody stool at 80 mg/kg/day administered qd measured up to day 21; format: organism-based; conditions: in vivo
Mus musculus [20] = experiment: Toxicity in BALB/c nude mouse xenografted with human HT-29 cells assessed as hematuria at 80 mg/kg/day administered qd measured up to day 21; format: organism-based; conditions: in vivo
Mus musculus [21] = experiment: Toxicity in BALB/c nude mouse xenografted with human NCI-H460 cells assessed as hematuria at 40 mg/kg/day administered qd; format: organism-based; conditions: in vivo
Mus musculus [22] = experiment: Toxicity in BALB/c nude mouse xenografted with human NCI-H460 cells assessed as severe weight loss at 40 mg/kg/day administered qd; format: organism-based; conditions: in vivo
Mus musculus [23] = experiment: Toxicity in BALB/c nude mouse xenografted with human NCI-H460 cells assessed as bloody stool at 40 mg/kg/day administered qd; format: organism-based; conditions: in vivo
Mus musculus [24] = experiment: Toxicity in BALB/c nude mouse xenografted with human HT-29 cells assessed as severe weight loss at 80 mg/kg/day administered qd measured after 6 days; format: organism-based; conditions: in vivo, 144 h
Mus musculus [25] = experiment: Toxicity in BALB/c nude mouse xenografted with human HT-29 cells assessed as mortality at 80 mg/kg/day administered qd measured on day 15; format: organism-based; conditions: in vivo
Mus musculus [26] = experiment: Toxicity in BALB/c nude mouse xenografted with human HT-29 cells assessed as weight loss at 80 mg/kg/day administered qd measured up to day 21; format: organism-based; conditions: in vivo
Mus musculus [27] = experiment: Toxicity in BALB/c nude mouse xenografted with human HT-29 cells assessed as severe weight loss at 80 mg/kg/day administered qd; format: organism-based; conditions: in vivo
Mus musculus [28] = experiment: Toxicity in BALB/c nude mouse xenografted with human HT-29 cells assessed as weakness at 80 mg/kg/day administered qd; format: organism-based; conditions: in vivo
Mus musculus [29] = experiment: Toxicity in BALB/c nude mouse xenografted with human HT-29 cells assessed as development of diarrhea at 80 mg/kg/day administered qd; format: organism-based; conditions: in vivo
Mus musculus [30] = experiment: Toxicity in BALB/c nude mouse xenografted with human HT-29 cells assessed as severe weight loss at 80 mg/kg/day administered qd measured after 9 days; format: organism-based; conditions: in vivo, 216 h
Mus musculus [31] = experiment: Toxicity in BALB/c nude mouse xenografted with human HT-29 cells assessed as lethargic behavior at 80 mg/kg/day administered qd; format: organism-based; conditions: in vivo
Mus musculus [32] = experiment: Toxicity in BALB/c nude mouse xenografted with human HT-29 cells assessed as mortality at 80 mg/kg/day administered qd measured after 6 days; format: organism-based; conditions: in vivo, 144 h
Mus musculus [33] = experiment: Toxicity in BALB/c nude mouse xenografted with human HT-29 cells assessed as mortality at 80 mg/kg/day administered qd measured on day 12; format: organism-based; conditions: in vivo
Mus musculus [34] = experiment: Toxicity in BALB/c nude mouse xenografted with human HT-29 cells assessed as severe weight loss at 80 mg/kg/day administered qd measured after 3 days; format: organism-based; conditions: in vivo, 72 h

## CCN(CC)CCNC(=O)c1c(C)[nH]c(/C=C2\C(=O)Nc3ccc(F)cc32)c1C [SUNITINIB]
Mus musculus [1]
  Activity: -24.1%
NCI-H526
  IC50: 1.01 µM
[2]
  IC50: 0.003 µM
[3]
  IC50: 19.9 µM
Mus musculus [4]
  Activity: 12.3%
[5]
  IC50: 5.85 µM
Mus musculus [6]
  Activity: Toxic
Mus musculus [7]
  Activity: Toxic
NCI-H460 [8]
  TGI: Active
TT
  IC50: 0.04 µM
NCI-H460 [9]
  IC50: 4.31 µM
[10]
  IC50: 2.67 µM
HT-29
  Activity: Active
HT-29; record 2
  Activity: 88.9%
[11]
  IC50: 0.83 µM

## Cc1[nH]c(/C=C2\C(=O)Nc3ccc(F)cc32)c(C)c1NC(=O)CN1CCN(C)CC1
Aorta [12]
  inhibition: Active
Mus musculus [13]
  Activity: Toxic
Aorta [14]
  inhibition: Active
Mus musculus [15]
  Activity: Toxic
Mus musculus [16]
  Activity: Toxic
Mus musculus [17]
  Activity: Toxic
Mus musculus [18]
  Activity: Toxic

## Cc1[nH]c(/C=C2\C(=O)Nc3ccc(F)cc32)c(C)c1NC(=O)CCN1CCOCC1
Aorta [12]
  inhibition: Active
Mus musculus [19]
  Activity: Non-toxic
Aorta [14]
  inhibition: Active
HT-29
  Activity: inactive
Mus musculus [20]
  Activity: Non-toxic

## Cc1[nH]c(/C=C2\C(=O)Nc3ccc(F)cc32)c(C)c1NC(=O)CN1CCCCC1
Aorta [12]
  inhibition: Active
Mus musculus [21]
  Activity: Non-toxic
Mus musculus [22]
  Activity: Non-toxic
Mus musculus [23]
  Activity: Non-toxic
Aorta [14]
  inhibition: Active
NCI-H460 [8]
  TGI: inactive

## CCN(CC)CCC(=O)Nc1c(C)[nH]c(/C=C2\C(=O)Nc3ccc(F)cc32)c1C
Aorta [12]
  inhibition: Active
Aorta [14]
  inhibition: Active
Mus musculus [24]
  Activity: Toxic
HT-29
  Activity: Active
Mus musculus [25]
  Activity: Toxic

## CCN1CCN(C(=O)c2c(C)[nH]c(/C=C3\C(=O)Nc4ccc(F)cc43)c2C)CC1
Aorta [12]
  inhibition: Active
Mus musculus [19]
  Activity: Non-toxic
Aorta [14]
  inhibition: Active
Mus musculus [26]
  Activity: Non-toxic
HT-29
  Activity: Active
Mus musculus [20]
  Activity: Non-toxic

## Cc1[nH]c(/C=C2\C(=O)Nc3ccc(F)cc32)c(C)c1NC(=O)CCCN(C)C
Aorta [12]
  inhibition: Active
Aorta [14]
  inhibition: Active
HT-29
  Activity: Active

## CCN1CCN(CCC(=O)Nc2c(C)[nH]c(/C=C3\C(=O)Nc4ccc(F)cc43)c2C)CC1
Aorta [12]
  inhibition: Active
Mus musculus [21]
  Activity: Non-toxic
Mus musculus [22]
  Activity: Non-toxic
Mus musculus [23]
  Activity: Non-toxic
Mus musculus [19]
  Activity: Non-toxic
Mus musculus [27]
  Activity: Non-toxic
Aorta [14]
  inhibition: Active
NCI-H460 [8]
  TGI: Active
HT-29
  Activity: Active
Mus musculus [20]
  Activity: Non-toxic

## CCN(CC)C1CCN(C(=O)c2c(C)[nH]c(/C=C3\C(=O)Nc4ccc(F)cc43)c2C)CC1
Aorta [12]
  inhibition: Active
Mus musculus [28]
  Activity: Toxic
Mus musculus [29]
  Activity: Toxic
Mus musculus [30]
  Activity: Toxic
Aorta [14]
  inhibition: Active
Mus musculus [24]
  Activity: Toxic
HT-29
  Activity: Active
Mus musculus [25]
  Activity: Toxic
Mus musculus [31]
  Activity: Toxic

## Cc1[nH]c(/C=C2\C(=O)Nc3ccc(F)cc32)c(C)c1NC(=O)CCN(C)C
Aorta [12]
  inhibition: Active
Aorta [14]
  inhibition: Active
HT-29
  Activity: Active

## Cc1[nH]c(/C=C2\C(=O)Nc3ccc(F)cc32)c(C)c1C(=O)N1CCN(CCO)CC1
Aorta [12]
  inhibition: Active
Aorta [14]
  inhibition: Active
HT-29
  Activity: inactive

## Cc1[nH]c(/C=C2\C(=O)Nc3ccc(F)cc32)c(C)c1NC(=O)CCN1CCCCC1
Aorta [12]
  inhibition: Active
Mus musculus [21]
  Activity: Non-toxic
Mus musculus [22]
  Activity: Non-toxic
Mus musculus [23]
  Activity: Non-toxic
Mus musculus [19]
  Activity: Non-toxic
Mus musculus [27]
  Activity: Non-toxic
Aorta [14]
  inhibition: Active
NCI-H460 [8]
  TGI: Active
HT-29
  Activity: Active
Mus musculus [20]
  Activity: Non-toxic

## Cc1[nH]c(/C=C2\C(=O)Nc3ccc(F)cc32)c(C)c1NC(=O)CCN1CCCC1
Aorta [12]
  inhibition: Active
Mus musculus [21]
  Activity: Non-toxic
Mus musculus [22]
  Activity: Non-toxic
Mus musculus [23]
  Activity: Non-toxic
Aorta [14]
  inhibition: Active
NCI-H460 [8]
  TGI: Active

## Cc1[nH]c(/C=C2\C(=O)Nc3ccc(F)cc32)c(C)c1NC(=O)/C=C/CN(C)C
Aorta [12]
  inhibition: Active
Aorta [14]
  inhibition: Active
HT-29
  Activity: inactive

## CCN(CC)CCC(=O)Nc1c(C)[nH]c(/C=C2\C(=O)Nc3ccc(Br)cc32)c1C
Aorta [12]
  inhibition: Active
Mus musculus [27]
  Activity: Toxic
Aorta [14]
  inhibition: Active
HT-29
  Activity: Active

## Cc1[nH]c(/C=C2\C(=O)Nc3ccc(F)cc32)c(C)c1C(=O)N1CCC(N(C)C)CC1
Aorta [12]
  inhibition: Active
Mus musculus [28]
  Activity: Toxic
Mus musculus [29]
  Activity: Toxic
Aorta [14]
  inhibition: Active
Mus musculus [24]
  Activity: Toxic
HT-29
  Activity: Active
Mus musculus [32]
  Activity: Toxic
Mus musculus [31]
  Activity: Toxic

## CCN(CC)CCC(=O)Nc1c(C)[nH]c(/C=C2\C(=O)Nc3ccc(Cl)cc32)c1C
Aorta [12]
  inhibition: Active
Mus musculus [33]
  Activity: Toxic
Mus musculus [34]
  Activity: Toxic
Aorta [14]
  inhibition: Active

## Cc1[nH]c(/C=C2\C(=O)Nc3ccc(F)cc32)c(C)c1C(=O)N1CCN(C)CC1
Aorta [12]
  inhibition: Active
Mus musculus [19]
  Activity: Non-toxic
Aorta [14]
  inhibition: Active
Mus musculus [26]
  Activity: Non-toxic
HT-29
  Activity: Active
Mus musculus [20]
  Activity: Non-toxic
